Legend:
[1] = test system: HIV-1 TAR element TAR RNA oligonucleotide; assay: Gel retardation analysis of Tat peptide binding to TAR RNA (non-denaturing polyacrylamide gel); conditions: 12% non-denaturing polyacrylamide gel, TK buffer, FIG. 2
Method: FIG. 2. Gel retardation analysis to detect peptide-RNA interactions. In 20 μl reactions containing 50 pmole end-labeled TAR RNA oligonucleotide, increasing concentrations of Tat47-58 peptide (0.1 uM, 0.2 uM, 0.4 uM, 0.8 uM, 1.6 uM) was added in TK buffer. The reaction mixture was then heated at 90° C for 2 min and allowed to cool slowly to 24° C. 10 μl of 30% glycerol was added to each sample and applied to a 12% non-denaturing polyacrylamide gel. The gel was electrophoresed using 1200 volt-hours at 4° C. in TBE Buffer. Following electrophoresis, the gel was dried and the radioactivity was quantitated with a phosphorimager. The concentration of peptide added is indicated above each lane.
(§1) Tris-potassium chloride (TK) buffer is composed of 50 mM Tris-HCl pH 7.4, 20 mM KCl, 0.1% Triton X-100, and 0.5 mM MgCl2. Tris-borate-EDTA (TBE) buffer is composed of 45 mM Tris-borate pH 8.0, and 1 mM EDTA. Tris-Potassium chloride-magnesium (TKM) buffer is composed of 50 mM Tris-HCl pH 7.4, 20 mM KCl, 0.1% Triton X-100 and 5 mM MgCl2.
RNA oligonucleotides were purchased from Dharmacon, Inc, Lafayette, Colo.). […] The gel was exposed to an intensifying screen and radioactivity was quantitated using a Typhoon phosporimager molecular Dynamics).

[2] = test system: HIV-1 TAR element TAR RNA oligonucleotide; assay: Gel retardation assay by automated capillary electrophoresis (Tat peptide and TAR RNA); format: binding; conditions: increasing concentrations of Tat peptide, SCE9610 apparatus, FIG. 6
Method: FIG. 6. Gel retardation analysis to detect peptide-RNA interactions. In reactions containing increasing concentrations of Tat47-58 peptide (0.1 mM, 0.2 mM, 0.4 mM, 0.8 mM, 1.6 mM) 50 pmole TAR RNA oligonucleotide was added in TK buffer. The reaction mixture was then heated at 90° C. for 2 min and allowed to cool slowly to 24° C. The reactions were loaded onto a SCE9610 automated capillary electrophoresis apparatus (SpectruMedix; State College, Pennsylvania). The peaks correspond to the amount of free TAR RNA (“TAR”) or the Tat-TAR complex (“Tat-TAR”). The concentration of peptide added is indicated below each lane.
as §1, with “0.5 mM MgC2. Tris-borate-EDTA (IBE)” for “0.5 mM MgCl2. Tris-borate-EDTA (TBE)”, “MgC2. Tris-borate-EDTA (IBE) buffer is” for “MgCl2. Tris-borate-EDTA (TBE) buffer is”
RNA oligonucleotides were purchased from Dharmacon, Inc, Lafayette, Colo.). 500 pmole of a 5′ fluorescein labeled oligonucleotide corresponding to the HIV-1 TAR element TAR RNA (5′-[…]-3′ (SEQ ID NO: 2); Huq et al., 1999, Nucleic Acids Research. 27:1084-1093; Hwang et al., 1999, Proc. Natl. Acad. Sci. USA 96:12997-13002) was used. […]

[3] = test system: HIV TAR RNA element oligonucleotide; assay: Gel mobility shift specificity control: gentamicin with an unrelated oligonucleotide; format: binding; conditions: incubated with 10 mg/ml gentamicin, FIG. 4
Method: (§2) FIG. 4. The presence of 10 pg/ml gentamicin produces a gel mobility shift in the presence of the 16S rRNA oligonucleotide. 20 μl reactions containing increasing concentrations of gentamicin (100 ng/ml, 10 ng/ml, 1 ng/ml, 100 pg/ml, and 10 pg/ml) were added to 50 pmole end-labeled RNA oligonucleotide in TKM buffer were treated as described for FIG. 3.
RNA oligonucleotides were purchased from Dharmacon, Inc, Lafayette, Colo.). 500 pmole of either a 5′ fluorescein labeled oligonucleotide corresponding to the 16S rRNA A site (5′-[…]-3′ (SEQ ID NO:1); Moazed & Noller, 1987, Nature 327:389-394; Woodcock et al., 1991, EMBO J. 10:3099-3103; Yoshizawa et al., 1998, EMBO J. 17:6437-6448) or a 5′ fluorescein labeled oligonucleotide corresponding to the HIV-1 TAR element TAR RNA (5′-[…]-3′ (SEQ ID NO: 2); Huq et al., 1999, Nucleic Acids Research. 27:1084-1093; Hwang et al., 1999, Proc. Natl. Acad. Sci. USA 96:12997-13002) was 3′ labeled with 5′-^32P cytidine 3′,5′-bis(phosphate) (NEN) and T4 RNA ligase (NEBiolabs) in 10% DMSO as per manufacturer's instructions. The labeled oligonucleotides were purified using G-25 Sephadex columns (Boehringer Mannheim). […] The gel was exposed to an intensifying screen and radioactivity was quantitated using a Typhoon phosporimager molecular Dynamics). […]

[4] = test system: RNA oligonucleotide corresponding to the 16S rRNA A site; assay: Gel mobility shift assay of gentamicin binding to the 16S rRNA A site oligonucleotide
Method: FIG. 3. Gentamicin interacts with an oligonucleotide corresponding to the 16S rRNA. 20 μl reactions containing increasing concentrations of gentamicin (1 ng/ml, 10 ng/ml, 100 ng/ml, 1 μg/ml, 10 μg/ml, 50 μg/ml, 500 μg/ml) were added to 50 pmole end-labeled RNA oligonucleotide in TKM buffer, heated at 90° C. for 2 min and allowed to cool slowly to 24° C. 10 μl of 30% glycerol was added to each sample and the samples were applied to a 13.5% non-denaturing polyacrylamide gel. The gel was electrophoresed using 1200 volt-hours at 4° C. in TBE Buffer. Following electrophoresis, the gel was dried and the radioactivity was quantitated using a phosphorimager. The concentration of gentamicin added is indicated above each lane.
as §2
FIG. 5. Gentamicin binding to the 16S rRNA oligonucleotide is weak in the absence of MgCl2.
as §1
RNA oligonucleotides were purchased from Dharmacon, Inc, Lafayette, Colo.). 500 pmole of either a 5′ fluorescein labeled oligonucleotide corresponding to the 16S rRNA A site (5′-[…]-3′ (SEQ ID NO:1); Moazed & Noller, 1987, Nature 327:389-394; Woodcock et al., 1991, EMBO J. 10:3099-3103; Yoshizawa et al., 1998, EMBO J. 17:6437-6448) or a 5′ fluorescein labeled oligonucleotide corresponding to the HIV-1 TAR element TAR RNA (5′-[…]-3′ (SEQ ID NO: 2); Huq et al., 1999, Nucleic Acids Research. 27:1084-1093; Hwang et al., 1999, Proc. Natl. Acad. Sci. USA 96:12997-13002) was 3′ labeled with 5′-^32P cytidine 3′,5′-bis(phosphate) (NEN) and T4 RNA ligase (NEBiolabs) in 10% DMSO as per manufacturer's instructions. The labeled oligonucleotides were purified using G-25 Sephadex columns (Boehringer Mannheim). For Tat-TAR gel retardation reactions the method of Huq et al. (Nucleic Acids Research, 1999, 27:1084-1093) was utilized with TK buffer containing 0.5 mM MgCl2 and a 12-mer Tat peptide (YGRKKRRQRRRP (SEQ ID NO: 3; single letter amino acid code). For 16S rRNA-gentamicin reactions, the method of Huq et al was used with TKM buffer. In 20 μl reaction volumes 50 pmoles of ^32P cytidine-labeled oligonucleotide and either gentamicin sulfate (Sigma) or the short Tat peptide (Tat47-58) in TK or TKM buffer were heated at 90° C. for 2 minutes and allow to cool to room temperature (approximately 24° C.) over 2 hours. Then 10 μl of 30% glycerol was added to each reaction tube and the entire sample was loaded onto a TBE non-denaturing polyacrylamide gel and electrophoresed at 1200-1600 volt-hours at 4° C. The gel was exposed to an intensifying screen and radioactivity was quantitated using a Typhoon phosporimager molecular Dynamics).

Substance | gel mobility shift of TAR RNA oligonucleotide in the presence of the peptide [1] | shift of TAR RNA peak in capillary electrophoresis [2] | gel mobility shift of unrelated HIV TAR RNA oligonucleotide [3] | lowest gentamicin concentration that produces the mobility shift ([4]; TKM buffer (5 mM MgCl2), 1 ng/ml to 500 μg/ml tested, FIG. 3) [ng/mL] | gel shift when gentamicin is added after renaturation has proceeded to 75° C. ([4]; added after the renaturation step has proceeded to 75° C.) | gentamicin binding to the 16S rRNA oligonucleotide in the absence of MgCl2 ([4]; buffer without MgCl2, FIG. 5) | gel shift when gentamicin is added at 90° C. or 85° C. ([4]; gentamicin present during entire denaturation/renaturation cycle, data not shown) | gentamicin concentration that must be added to produce a gel shift when MgCl2 is not present ([4]; no MgCl2 (TK buffer), FIG. 5) [mg/mL] | mobility shift of 16S rRNA A site oligonucleotide on addition of gentamicin ([4]; varying concentrations, TKM buffer, FIG. 3)
YGRKKRRQRRRP [Tat47-58 peptide] | a clear shift is visible | a clear shift is visible |  |  |  |  |  |  | 
gentamicin |  |  | does not result in a gel mobility shift | ≤ 10 | a mobility shift is not produced | weak | a gel shift is visualized | 1 | produces a mobility shift
